Peptide text beside a SMILES is read from it. * marks the point of attachment. AMC = Cc1cc(=O)oc2cc(N*)ccc12; Cbz = O=C(OCc1ccccc1)*
Assays:
Test in all cases: fluorescence of released AMC
Assay type in all cases: biochemical
Settings in all cases: pH 6.0, 30 °C, 10 mM L-cysteine, 10 mM EDTA, 0.01% Brij35
[1] = target: T1, HvPap-4 (Hordeum vulgare, UniProt B4ESE6)
T1 construct: gene pap-4; propeptide printed as R25-D134

[2] = target: T2, HvPap-16 (Hordeum vulgare, UniProt B4ESF4)
T2 construct: gene pap-16; the propeptide cloning list prints HvPap-17 (A23-V156) instead of HvPap-16
T2 sequence (B4ESF4 entry or part of it): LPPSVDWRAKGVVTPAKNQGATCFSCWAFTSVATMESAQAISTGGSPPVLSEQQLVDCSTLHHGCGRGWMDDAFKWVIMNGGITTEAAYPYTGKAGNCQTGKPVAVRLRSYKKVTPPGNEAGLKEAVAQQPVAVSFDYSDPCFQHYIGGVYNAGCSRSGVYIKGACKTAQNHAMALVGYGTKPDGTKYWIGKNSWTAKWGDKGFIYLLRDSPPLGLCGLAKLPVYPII

[3] = target: T3, HvPap-6 (Hordeum vulgare, UniProt B4ESE8)
T3 construct: gene pap-6; propeptide printed as A25-E131
T3 sequence (B4ESE8 entry or part of it): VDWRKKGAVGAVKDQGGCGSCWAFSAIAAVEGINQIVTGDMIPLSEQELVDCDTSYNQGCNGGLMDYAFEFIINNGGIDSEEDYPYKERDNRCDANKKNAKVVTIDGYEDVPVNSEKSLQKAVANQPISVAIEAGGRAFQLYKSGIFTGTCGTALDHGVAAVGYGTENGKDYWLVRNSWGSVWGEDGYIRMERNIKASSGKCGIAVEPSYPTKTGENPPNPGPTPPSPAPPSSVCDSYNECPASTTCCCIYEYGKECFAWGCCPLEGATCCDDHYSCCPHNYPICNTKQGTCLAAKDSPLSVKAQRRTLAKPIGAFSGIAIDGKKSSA

[4] = target: T4, BovCathB (Bos taurus, UniProt P07688)
T4 construct: gene CTSB; commercial enzyme (Calbiochem)

T1 sequence (B4ESE6 entry or part of it): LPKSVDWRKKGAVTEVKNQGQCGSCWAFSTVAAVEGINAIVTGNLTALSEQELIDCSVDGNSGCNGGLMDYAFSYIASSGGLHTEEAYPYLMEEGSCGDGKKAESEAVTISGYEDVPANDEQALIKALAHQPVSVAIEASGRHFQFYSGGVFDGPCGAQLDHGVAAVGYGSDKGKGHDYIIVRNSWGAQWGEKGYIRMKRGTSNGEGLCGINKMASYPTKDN

Structure (SMILES)	fluorescence of released AMC [1]	fluorescence of released AMC [2]	fluorescence of released AMC [3]	fluorescence of released AMC [4]
Cc1cc(=O)oc2cc(NC(=O)[C@H](CCCNC(=N)N)NC(=O)[C@H](Cc3ccccc3)NC(=O)OCc3ccccc3)ccc12 [Z-FR-AMC] (Cbz-Phe-Arg-{AMC})	Z-FR-AMC (for cathepsin L) or Z-RR-AMC (for cathepsin B) fluorescent substrates were added	Z-FR-AMC (for cathepsin L) or Z-RR-AMC (for cathepsin B) fluorescent substrates were added	Z-FR-AMC (for cathepsin L) or Z-RR-AMC (for cathepsin B) fluorescent substrates were added	–
Cc1cc(=O)oc2cc(NC(=O)[C@H](CCCNC(=N)N)NC(=O)[C@H](CCCNC(=N)N)NC(=O)OCc3ccccc3)ccc12 [Z-RR-AMC] (Cbz-Arg-Arg-{AMC})	–	–	–	Z-FR-AMC (for cathepsin L) or Z-RR-AMC (for cathepsin B) fluorescent substrates were added

Source: PMC3355106, “Structural Basis for Specificity of Propeptide-Enzyme Interaction in Barley C1A Cysteine Peptidases” (PLoS ONE, 2012)
